Data reported in patent US20250163104A1, “MACROCYCLIC IMMUNOMODULATORS” (priority 2021, published 2025).
Where a SMILES comes first, the peptide text is derived from it. Bridges are numbered along the chain shown (N, C = ends). [ ]: non-standard residue; d: D form. The star is where a group is joined. ξ: configuration not given here. Phe(4-CONH2) = NC(=O)c1ccc(C[C@H](N)C(=O)O)cc1; Phe(4-COOH) = N[C@@H](Cc1ccc(C(=O)O)cc1)C(=O)O; Bip = N[C@@H](Cc1ccc(-c2ccccc2)cc1)C(=O)O; Phe(3-Me) = Cc1cccc(C[C@H](N)C(=O)O)c1; Val(3-OH) = CC(C)(O)[C@H](N)C(=O)O; 4Pal = N[C@@H](Cc1ccncc1)C(=O)O; Cha = N[C@@H](CC1CCCCC1)C(=O)O; Cit = NC(=O)NCCC[C@H](N)C(=O)O; Thr(3ξ) = CC(O)[C@H](N)C(=O)O; Ahp(2) = CCCCC[C@H](N)C(=O)O; Carboxymethyl = O=C(O)C*; Orn = NCCC[C@H](N)C(=O)O; Dab = NCC[C@H](N)C(=O)O; Dap = NC[C@H](N)C(=O)O; Propargyl = C#CC*

These compounds were tested against T1, human PD-1 / PD-L1-Ig binding on Jurkat cell line over-expressing human PD-1 (Jurkat-PD-1) (Homo sapiens, UniProt Q15116) (assay: Jurkat-PD-1 Cell Binding High-Content Screening Assay (CBA)). Settings: Jurkat HPD1_PDL1 IC50, Jurkat-PD-1 cells, PE-labeled PD-L1-Ig 20 nM final.
T1 construct: expressed in transfected cells; host or cells: Jurkat
T1 sequence (Q15116 25-288): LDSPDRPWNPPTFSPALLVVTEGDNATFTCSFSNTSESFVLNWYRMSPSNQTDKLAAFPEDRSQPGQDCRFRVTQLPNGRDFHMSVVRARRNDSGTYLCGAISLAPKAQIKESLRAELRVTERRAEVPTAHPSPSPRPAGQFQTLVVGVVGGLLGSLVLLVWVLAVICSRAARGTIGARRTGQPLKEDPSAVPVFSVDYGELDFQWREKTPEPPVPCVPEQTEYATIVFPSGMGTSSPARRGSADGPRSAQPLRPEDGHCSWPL
Assay type: cell-based
In short: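 Binding of fluorescent PD-L1-Ig (phycoerythrin linked via the Ig tag, 20 nM final) to PD-1-overexpressing Jurkat cells was imaged after a 2 h, 37° C compound pretreatment and 1 hour ligand incubation.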

| Structure (SMILES) | IC50 |
| --- | --- |
| CC(C)C[C@H]1NC(=O)[C@H](CCCN)NC(=O)[C@H](CCC(=O)O)NC(=O)[C@H](Cc2ccc(-c3ccccc3)cc2)NC(=O)[C@H](C(C)C)NC(=O)[C@H](Cc2c[nH]c3ccccc23)NC(=O)[C@H](CC(=O)O)NC(=O)[C@H](Cc2ccc(OCC(=O)O)cc2)NC(=O)[C@H](Cc2ccncc2)NC(=O)CSC[C@@H](C(=O)N[C@@H](C)C(N)=O)NC(=O)[C@H]([C@@H](C)O)NC(=O)[C@H](C(C)C)NC(=O)[C@H](CC2CCCCC2)NC(=O)[C@H](Cc2c[nH]cn2)NC1=O [Compound 1609] | 0.0153 µM |

Same assay, conditions: Jurkat-PD-1 cells, PE-labeled PD-L1-Ig 20 nM final; read-out: Jurkat HPD1_PDL1 IC50

| Structure (SMILES) | IC50 |
| --- | --- |
| CCCCC[C@@H]1NC(=O)[C@H](Cc2c[nH]c3ccccc23)NC(=O)[C@H](CC(=O)O)NC(=O)[C@H](Cc2ccc(OCC(=O)O)cc2)NC(=O)[C@H](CN)NC(=O)CSC[C@@H](C(=O)N[C@@H](C)C(N)=O)NC(=O)[C@H]([C@@H](C)O)NC(=O)[C@H](C(C)C)NC(=O)[C@H](CC2CCCCC2)NC(=O)[C@H](CCN)NC(=O)[C@@H](CC(C)C)NC(=O)[C@H](CCCN)NC(=O)[C@H](CCCNC(N)=O)NC(=O)[C@H](Cc2ccc(-c3ccccc3)cc2)NC1=O [Compound 1360] ({CH2CO}-[Dap]Y(Carboxymethyl)DW[Ahp(2)][Bip][Cit][Orn][dL][Dab][Cha]VTCA-NH2; thioether N-14) | 0.0108 µM |
| CC(C)C[C@@H]1NC(=O)[C@H](CCN)NC(=O)[C@@H](CC(C)C)NC(=O)[C@@H](CC(C)C)NC(=O)[C@H](C(C)C)NC(=O)[C@H](Cc2ccc(-c3ccccc3)cc2)NC(=O)[C@H](C(C)C)NC(=O)[C@H](Cc2c[nH]c3ccccc23)NC(=O)[C@H](CC(=O)O)NC(=O)[C@H](Cc2ccc(O)cc2)NC(=O)[C@H](CC(N)=O)NC(=O)CSC[C@@H](C(=O)N[C@@H](C)C(N)=O)NC(=O)[C@H]([C@@H](C)O)NC(=O)[C@H](C(C)C)NC1=O [Compound 1032] ({CH2CO}-NYDWV[Bip]V[dL][dL][Dab]LVTCA-NH2; thioether N-14) | 0.0155 µM |
| CC[C@H](C)[C@@H]1NC(=O)[C@H](Cc2ccc(-c3ccccc3)cc2)NC(=O)[C@H](C(C)C)NC(=O)[C@H](Cc2cccc(Cl)c2)NC(=O)[C@H](CC(=O)O)NC(=O)[C@H](Cc2ccncc2)NC(=O)[C@H](CN)NC(=O)CSC[C@@H](C(=O)N[C@@H](C)C(N)=O)NC(=O)[C@H]([C@@H](C)O)NC(=O)[C@H](C(C)C)NC(=O)[C@H](CC2CCCCC2)NC(=O)[C@H](CCN)NC(=O)[C@@H](CC(C)C)NC(=O)[C@H](CCCN)NC1=O [Compound 1562] | 0.0202 µM |
| CC(C)C[C@@H]1NC(=O)[C@H](CCN)NC(=O)[C@@H](CC(C)C)NC(=O)[C@H](CCCN)NC(=O)[C@H](CCCNC(N)=O)NC(=O)[C@H](Cc2ccc(-c3ccccc3)cc2)NC(=O)[C@H](C(C)C)NC(=O)[C@H](Cc2c[nH]c3ccccc23)NC(=O)[C@H](CC(=O)O)NC(=O)[C@H](Cc2ccc(C(=O)O)cc2)NC(=O)[C@H](CN)NC(=O)CSC[C@@H](C(=O)N[C@@H](C)C(N)=O)NC(=O)[C@H]([C@@H](C)O)NC(=O)[C@H](C(C)C)NC1=O [Compound 1043] ({CH2CO}-[Dap][Phe(4-COOH)]DWV[Bip][Cit][Orn][dL][Dab]LVTCA-NH2; thioether N-14) | 0.0319 µM |
| CC(C)C[C@@H]1NC(=O)[C@H](CCN)NC(=O)[C@@H](CC(C)C)NC(=O)[C@H](CCCN)NC(=O)[C@H](C(C)C)NC(=O)[C@H](Cc2ccc(-c3ccccc3)cc2)NC(=O)[C@H](C(C)C)NC(=O)[C@H](Cc2c[nH]c3ccccc23)NC(=O)[C@H](CC(=O)O)NC(=O)[C@H](Cc2ccc(OCC(=O)O)cc2)NC(=O)[C@H](Cc2ccncc2)NC(=O)CSC[C@@H](C(=O)N[C@@H](C)C(N)=O)NC(=O)[C@H]([C@@H](C)O)NC(=O)[C@H](C(C)C)NC1=O [Compound 1051] ({CH2CO}-[4Pal]Y(Carboxymethyl)DWV[Bip]V[Orn][dL][Dab]LVTCA-NH2; thioether N-14) | 0.0052 µM |
| CCCC[C@@H]1NC(=O)[C@H](Cc2ccc(-c3ccccc3)cc2)NC(=O)[C@H](C(C)C)NC(=O)[C@H](Cc2c[nH]c3ccccc23)NC(=O)[C@H](CC(=O)O)NC(=O)[C@H](Cc2ccc(C(=O)O)cc2)NC(=O)[C@H](Cc2ccncc2)NC(=O)CSC[C@@H](C(=O)N[C@@H](C)C(N)=O)NC(=O)[C@H]([C@@H](C)O)NC(=O)[C@H](C(C)C)NC(=O)[C@H](CC2CCCCC2)NC(=O)[C@H](Cc2cnc[nH]2)NC(=O)[C@@H](CC(C)C)NC(=O)[C@H](CCCN)NC1=O [Compound 1622] | 0.036 µM |

Continued, values first:

| IC50 | Structure (SMILES) |
| --- | --- |
| 0.004 µM | Cc1cccc(C[C@@H]2NC(=O)[C@H](CC(=O)O)NC(=O)[C@H](Cc3ccc(OCC(=O)O)cc3)NC(=O)[C@H](C(C)O)NC(=O)CSC[C@@H](C(=O)N[C@@H](CCN)C(N)=O)NC(=O)[C@H](CO)NC(=O)[C@H](C(C)(C)O)NC(=O)[C@H](CC3CCCCC3)NC(=O)[C@H](CCN)NC(=O)[C@@H](CC(C)C)NC(=O)[C@H](CCCN)NC(=O)[C@H](Cc3ccc(O)cc3)NC(=O)[C@H](Cc3ccc(-c4ccccc4)cc3)NC(=O)[C@H](Cc3ccc(C(N)=O)cc3)NC2=O)c1 (stereo partly drawn) [Compound 2633] ({CH2CO}-[Thr(3ξ)]Y(Carboxymethyl)D[Phe(3-Me)][Phe(4-CONH2)][Bip]Y[Orn][dL][Dab][Cha][Val(3-OH)]SC[Dab]-NH2; thioether N-14) |
| 0.0037 µM | C#CCOc1ccc(C[C@@H]2NC(=O)[C@H](CN)NC(=O)CSC[C@@H](C(=O)N[C@@H](CCN)C(N)=O)NC(=O)[C@H](CCC(=O)O)NC(=O)[C@H](C(C)C)NC(=O)[C@H](CC3CCCCC3)NC(=O)[C@H](CCN)NC(=O)[C@@H](CC(C)C)NC(=O)[C@H](CCCN)NC(=O)[C@H](Cc3ccc(OCC(=O)O)cc3)NC(=O)[C@H](Cc3ccc(-c4ccccc4)cc3)NC(=O)[C@H](Cc3ccc(OCC(=O)O)cc3)NC(=O)[C@H](Cc3cccc(C)c3)NC(=O)[C@H](CC(=O)O)NC2=O)cc1 [Compound 1819] ({CH2CO}-[Dap]Y(Propargyl)D[Phe(3-Me)]Y(Carboxymethyl)[Bip]Y(Carboxymethyl)[Orn][dL][Dab][Cha]VEC[Dab]-NH2; thioether N-14) |
| 0.0105 µM | CCC(C)[C@@H]1NC(=O)[C@H](Cc2ccc(-c3ccccc3)cc2)NC(=O)[C@H](C(C)C)NC(=O)[C@H](Cc2c[nH]c3ccccc23)NC(=O)[C@H](CC(=O)O)NC(=O)[C@H](Cc2ccc(OCC(=O)O)cc2)NC(=O)[C@H](CN)NC(=O)CSC[C@@H](C(=O)N[C@@H](C)C(N)=O)NC(=O)[C@H](C(C)O)NC(=O)[C@H](C(C)C)NC(=O)[C@H](CC2CCCCC2)NC(=O)[C@H](CCN)NC(=O)[C@@H](CC(C)C)NC(=O)[C@H](CCCN)NC1=O (some centres unmarked) [Compound 2520] |
| 0.0335 µM | Cc1cccc(C[C@@H]2NC(=O)[C@H](CC(=O)O)NC(=O)[C@H](Cc3ccc(OCC(=O)O)cc3)NC(=O)[C@H]([C@@H](C)O)NC(=O)CSC[C@@H](C(N)=O)NC(=O)[C@H](CCC(N)=O)NC(=O)[C@H](C(C)C)NC(=O)[C@H](CC3CCCCC3)NC(=O)[C@H](CCN)NC(=O)[C@@H](CC(C)C)NC(=O)[C@H](CCCN)NC(=O)[C@H](Cc3ccc(OCC(=O)O)cc3)NC(=O)[C@H](Cc3ccc(-c4ccccc4)cc3)NC(=O)[C@H](Cc3ccc(OCC(=O)O)cc3)NC2=O)c1 [Compound 1799] ({CH2CO}-TY(Carboxymethyl)D[Phe(3-Me)]Y(Carboxymethyl)[Bip]Y(Carboxymethyl)[Orn][dL][Dab][Cha]VQC-NH2; thioether N-14) |
